Data taken from patent US11242346B2, “Mechanistic target of rapamycin signaling pathway inhibitors and therapeutic applications thereof” (SUZHOU KINTOR PHARMACEUTICALS, INC., priority 2016, dated 2022).

What was measured:
mTOR (FRAP1) = mTOR (FRAP1) (Homo sapiens, UniProt P42345); assay: SelectScreen Profiling, Z'-LYTE kinase assay, mTOR (FRAP1); format: biochemical; conditions: 0.1 μM compound, ATP at Km, read-out: mTOR inh% @0.1 μM
Description: (§1) Some of the example compounds were submitted to Life Technologies Corporation SelectScreen® Profiling Service to test their potency in inhibiting the kinase catalytic activities of mTOR, PI3Kα, VEGF2, FGFR1, HER1 (EGFR) and HER2. A concentration of ATP at the Km of the corresponding kinase was used for all assays. The mTOR (FRAP1), VEGF2, FGFR1, HER1 (EGFR) and HER2 assays used Z′-LYTE® technology. The PI3Kα assay used Adapta® technology. The symbol “inh %” as used herein generally refers to inhibition percentage.

NCI-H23 = assay: NCI60 panel growth inhibition, NCI-H23; format: cell-based; conditions: Homo sapiens
Procedure: (§2) Cell growth inhibitory activities against cancer cells of the present compounds were also evaluated by submitting selected the example compounds to US NCI-Chemotherapeutic Agents Repository for screening against NCI60 panel. The United States NCI-60 platform is a cancer cell platform established with 60 different human cancer cell lines from 9 different kinds of organs. This platform represents the biological characteristics of the corresponding tumor type. The drugs were screened by measuring the ability of each test compound at a range of concentrations to inhibit the growth of various tumor cells.

[1] = Rat pharmacokinetic study (IV and PO); format: in vivo; conditions: for AUC(0-t) / Cmax / MRT / clearance / half-life / Tmax / bioavailability: blood; for bioavailability: PO 10 mg/kg vs IV 5 mg/kg, read-out: Fpo (oral bioavailability)
Procedure: (§3) Active mTOR inhibitors in enzymatic and/or cell-based assays herein were evaluated for pharmacokinetic properties. Preferable compounds are with pharmacokinetic properties of low clearance, long half-life and/or good oral bioavailability (Fpo). In vitro, selected example compounds were evaluated for metabolic stability by incubating with human liver microsome (HLM) for 60 min. Compounds that were metabolized slower (i.e. higher % remaining) are preferred. […] The more metabolic stable example compounds in the HLM assay were further evaluated for pharmacokinetic properties in vivo. In a representative experiment, selected example compounds were dosed to rats intravenously (IV, 5 mg/kg, 30% PEG400+30% PG+1% DMSO in saline) and orally (PO, 10 mg/kg, 2.4% DMSO+0.1% Tween80 in 0.5% CMC-Na), rat blood samples were taken at designed time points after dosing and analyzed for tested drug concentrations using LC-MS/MS. Pharmacokinetic parameters were derived from the time curve of drug concentrations.

NCI 60 human cell lines = assay: NCI60 panel growth inhibition, average over 60 cell lines; format: cell-based
Procedure: as §2

SKOV-3 = assay: NCI60 panel growth inhibition, SKOV-3; format: cell-based; conditions: Homo sapiens, SK-OV-3
Procedure: as §2

A549 = assay: NCI60 panel growth inhibition, A549; format: cell-based; conditions: Homo sapiens
Procedure: as §2

HER2 = HER2 (Homo sapiens, UniProt P04626); assay: SelectScreen Profiling, Z'-LYTE kinase assay, HER2; format: biochemical; conditions: 1 μM compound, ATP at Km, read-out: HER2 inh % @1 μM
Description: as §1

[2] = Metabolic stability in human liver microsome (HLM); format: in vitro ADME; conditions: incubation with human liver microsome for 60 min
Procedure: as §3

HCT-116 = assay: NCI60 panel growth inhibition, HCT-116; format: cell-based; conditions: Homo sapiens
Procedure: as §2

FGFR1 = FGFR1 (Homo sapiens, UniProt P11362); assay: SelectScreen Profiling, Z'-LYTE kinase assay, FGFR1; format: biochemical; conditions: 1 μM compound, ATP at Km, read-out: FGFR 1 inh % @1 μM
Description: as §1

VEGF2 = VEGF2 (Homo sapiens, UniProt P35968); assay: SelectScreen Profiling, Z'-LYTE kinase assay, VEGF2; format: biochemical; conditions: 1 μM compound, ATP at Km, read-out: VEGF 2 inh % @1 μM
Description: as §1

[3] = system: mammalian tumor cell lines such as PC-3, LNCAP, U87, Huh-7, HepG2 and MDA-MB-468; assay: Cell proliferation/survival MTT assay in tumor cell lines; format: cell-based; conditions: 5 days (120 h) culture; cell line not specified; read-out: IC50, inhibition of tumor cell growth (MTT)
Procedure: The cytotoxic or cytostatic activity of Formula I-III exemplary compounds was measured by establishing proliferating mammalian tumor cell lines such as PC-3, LNCAP, U87, Huh-7, HepG2 and MDA-MB-468 in a cell culture medium, adding a test compound, culturing the cells for a period of 5 days by measuring cell viability via MTT assays. Dose response data were obtained for each test compound and the degree of inhibition of tumor cell growth was expressed as an IC50 value. […] For example. For example, compounds of example 14, 15, 46,29, 45, 49, 122, 88, 54, 55, 58, 59, 63, 64, 66, 67, 68, 113, 86, 90.
PC-3 (or U87) cells were seeded in 96-well plates at low density (at 2,000 cells per well) in media supplemented with 10% FBS (growth media) and transferred to serum-free media (1% FBS) after 24 h. Designated concentrations of drug were added to each well. The cells were incubated for 120 h. At the end of drug exposure, 20 μL/well of MTT solution was added. After 4 h at 37° C. in a humidified 5% CO2 atmosphere, the absorbance at 490 nm was recorded by using a microplate reader. IC50 was calculated using GraphPad Prism version 5 for Windows. The curves were fit using a nonlinear regression model with a log (inhibitor) versus response formula.

PC-3 = assay: NCI60 panel growth inhibition, PC-3; format: cell-based; conditions: Homo sapiens
Procedure: as §2

HER1 (EGFR) = HER1 (EGFR) (Homo sapiens, UniProt P00533); assay: SelectScreen Profiling, Z'-LYTE kinase assay, HER1 (EGFR); format: biochemical; conditions: 1 μM compound, ATP at Km, read-out: HER1 inh % @1 μM
Description: as §1

MCF-7 = assay: NCI60 panel growth inhibition, MCF-7; format: cell-based; conditions: Homo sapiens, MCF7
Procedure: as §2

NCI-H460 = assay: NCI60 panel growth inhibition, NCI-H460; format: cell-based; conditions: Homo sapiens
Procedure: as §2

PI3Kα = PI3Kα (Homo sapiens, UniProt P42336); assay: SelectScreen Profiling, Adapta kinase assay, PI3Kα; format: biochemical; conditions: 0.1 μM compound, ATP at Km, read-out: PI3Kα inh % @0.1 μM

HER2, sequence (P04626 23-1255): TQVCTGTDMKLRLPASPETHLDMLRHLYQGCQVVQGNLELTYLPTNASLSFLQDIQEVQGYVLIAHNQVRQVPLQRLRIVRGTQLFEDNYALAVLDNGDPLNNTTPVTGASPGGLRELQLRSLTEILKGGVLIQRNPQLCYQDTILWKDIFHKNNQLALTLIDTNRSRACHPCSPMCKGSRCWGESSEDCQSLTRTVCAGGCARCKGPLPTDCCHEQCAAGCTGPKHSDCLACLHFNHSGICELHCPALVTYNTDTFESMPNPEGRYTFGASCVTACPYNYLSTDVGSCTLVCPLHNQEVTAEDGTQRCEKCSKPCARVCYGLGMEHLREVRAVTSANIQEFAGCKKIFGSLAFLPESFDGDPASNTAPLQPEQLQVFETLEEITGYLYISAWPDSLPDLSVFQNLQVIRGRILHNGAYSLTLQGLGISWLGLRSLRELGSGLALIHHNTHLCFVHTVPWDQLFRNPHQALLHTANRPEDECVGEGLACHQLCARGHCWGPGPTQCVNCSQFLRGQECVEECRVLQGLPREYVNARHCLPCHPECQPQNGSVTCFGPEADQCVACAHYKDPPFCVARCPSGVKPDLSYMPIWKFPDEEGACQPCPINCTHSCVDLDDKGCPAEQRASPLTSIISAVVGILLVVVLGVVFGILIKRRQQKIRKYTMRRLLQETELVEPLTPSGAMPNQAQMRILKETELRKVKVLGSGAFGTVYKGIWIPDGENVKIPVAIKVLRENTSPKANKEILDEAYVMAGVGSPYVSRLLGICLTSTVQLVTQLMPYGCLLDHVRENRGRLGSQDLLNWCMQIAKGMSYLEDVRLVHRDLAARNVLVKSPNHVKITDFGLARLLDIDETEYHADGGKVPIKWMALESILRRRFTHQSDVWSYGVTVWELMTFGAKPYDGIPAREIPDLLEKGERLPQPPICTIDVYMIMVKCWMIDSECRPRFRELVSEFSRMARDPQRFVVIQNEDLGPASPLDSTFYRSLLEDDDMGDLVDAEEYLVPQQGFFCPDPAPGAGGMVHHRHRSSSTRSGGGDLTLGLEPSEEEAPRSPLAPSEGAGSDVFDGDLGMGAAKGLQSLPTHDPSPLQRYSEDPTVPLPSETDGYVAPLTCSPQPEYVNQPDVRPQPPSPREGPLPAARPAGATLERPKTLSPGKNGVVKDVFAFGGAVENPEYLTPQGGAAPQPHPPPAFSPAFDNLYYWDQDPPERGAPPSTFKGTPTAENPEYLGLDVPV
HER1 (EGFR), sequence (P00533 25-1210): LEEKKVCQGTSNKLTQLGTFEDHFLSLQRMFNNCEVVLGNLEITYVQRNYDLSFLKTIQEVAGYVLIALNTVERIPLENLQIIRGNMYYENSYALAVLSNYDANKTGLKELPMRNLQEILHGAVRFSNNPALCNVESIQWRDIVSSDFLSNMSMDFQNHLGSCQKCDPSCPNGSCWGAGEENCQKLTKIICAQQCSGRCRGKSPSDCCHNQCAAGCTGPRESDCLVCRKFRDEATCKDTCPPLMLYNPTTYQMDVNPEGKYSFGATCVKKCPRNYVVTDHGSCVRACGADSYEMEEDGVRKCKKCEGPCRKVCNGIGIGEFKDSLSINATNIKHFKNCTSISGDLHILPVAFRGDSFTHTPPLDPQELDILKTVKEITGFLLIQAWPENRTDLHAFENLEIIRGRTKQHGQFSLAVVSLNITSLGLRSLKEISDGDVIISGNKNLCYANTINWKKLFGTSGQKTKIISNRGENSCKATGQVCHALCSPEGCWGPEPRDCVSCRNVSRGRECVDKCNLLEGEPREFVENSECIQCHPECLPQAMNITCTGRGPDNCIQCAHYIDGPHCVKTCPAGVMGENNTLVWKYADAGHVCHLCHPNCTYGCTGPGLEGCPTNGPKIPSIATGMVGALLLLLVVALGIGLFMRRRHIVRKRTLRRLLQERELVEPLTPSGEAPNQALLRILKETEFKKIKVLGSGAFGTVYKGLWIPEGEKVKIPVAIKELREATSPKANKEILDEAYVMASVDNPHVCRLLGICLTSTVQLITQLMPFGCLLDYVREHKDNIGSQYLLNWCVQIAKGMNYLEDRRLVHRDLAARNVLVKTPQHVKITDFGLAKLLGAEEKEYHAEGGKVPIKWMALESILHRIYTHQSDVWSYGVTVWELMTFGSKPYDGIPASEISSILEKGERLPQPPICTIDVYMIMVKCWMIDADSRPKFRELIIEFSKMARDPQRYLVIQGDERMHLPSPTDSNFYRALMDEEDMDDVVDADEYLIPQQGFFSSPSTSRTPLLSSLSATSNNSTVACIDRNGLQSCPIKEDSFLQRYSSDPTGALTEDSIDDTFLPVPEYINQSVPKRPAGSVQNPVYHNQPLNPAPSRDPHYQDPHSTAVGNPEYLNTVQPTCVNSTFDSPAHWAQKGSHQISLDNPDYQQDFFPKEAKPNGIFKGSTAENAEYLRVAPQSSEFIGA
VEGF2, sequence (P35968 20-1356): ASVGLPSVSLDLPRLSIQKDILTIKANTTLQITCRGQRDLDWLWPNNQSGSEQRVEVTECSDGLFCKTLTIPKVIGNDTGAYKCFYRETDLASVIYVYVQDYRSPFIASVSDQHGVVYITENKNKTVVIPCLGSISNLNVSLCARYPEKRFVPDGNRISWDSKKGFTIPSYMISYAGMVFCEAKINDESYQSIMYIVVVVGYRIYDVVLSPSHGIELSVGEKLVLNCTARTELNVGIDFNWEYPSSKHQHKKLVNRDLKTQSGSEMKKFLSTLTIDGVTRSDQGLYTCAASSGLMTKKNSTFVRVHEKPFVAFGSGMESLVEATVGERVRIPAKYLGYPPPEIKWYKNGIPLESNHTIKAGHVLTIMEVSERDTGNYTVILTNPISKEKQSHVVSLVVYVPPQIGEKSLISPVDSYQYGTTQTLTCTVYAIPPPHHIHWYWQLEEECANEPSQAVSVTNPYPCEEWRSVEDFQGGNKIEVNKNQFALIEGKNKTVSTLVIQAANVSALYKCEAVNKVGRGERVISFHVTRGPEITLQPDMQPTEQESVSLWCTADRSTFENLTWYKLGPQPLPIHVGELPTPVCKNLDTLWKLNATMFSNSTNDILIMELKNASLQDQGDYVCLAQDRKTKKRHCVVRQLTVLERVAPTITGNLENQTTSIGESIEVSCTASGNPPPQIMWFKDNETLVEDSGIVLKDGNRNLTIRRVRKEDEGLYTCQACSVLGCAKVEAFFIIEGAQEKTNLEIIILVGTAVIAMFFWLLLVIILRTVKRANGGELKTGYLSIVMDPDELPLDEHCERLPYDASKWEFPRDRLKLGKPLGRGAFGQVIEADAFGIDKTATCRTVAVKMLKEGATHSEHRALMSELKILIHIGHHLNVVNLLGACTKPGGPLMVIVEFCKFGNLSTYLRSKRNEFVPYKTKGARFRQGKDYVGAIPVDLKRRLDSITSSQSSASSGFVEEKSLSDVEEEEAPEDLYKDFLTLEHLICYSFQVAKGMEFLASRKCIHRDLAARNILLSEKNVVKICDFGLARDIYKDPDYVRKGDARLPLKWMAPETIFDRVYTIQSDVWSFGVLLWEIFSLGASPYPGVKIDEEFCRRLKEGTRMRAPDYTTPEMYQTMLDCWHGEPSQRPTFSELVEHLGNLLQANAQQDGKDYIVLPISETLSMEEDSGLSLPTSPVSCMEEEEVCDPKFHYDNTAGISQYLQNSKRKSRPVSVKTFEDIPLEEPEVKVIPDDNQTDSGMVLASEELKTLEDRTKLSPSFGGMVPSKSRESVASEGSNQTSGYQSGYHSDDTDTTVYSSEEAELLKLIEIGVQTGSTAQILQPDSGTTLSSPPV
FGFR1, sequence (P11362 22-822): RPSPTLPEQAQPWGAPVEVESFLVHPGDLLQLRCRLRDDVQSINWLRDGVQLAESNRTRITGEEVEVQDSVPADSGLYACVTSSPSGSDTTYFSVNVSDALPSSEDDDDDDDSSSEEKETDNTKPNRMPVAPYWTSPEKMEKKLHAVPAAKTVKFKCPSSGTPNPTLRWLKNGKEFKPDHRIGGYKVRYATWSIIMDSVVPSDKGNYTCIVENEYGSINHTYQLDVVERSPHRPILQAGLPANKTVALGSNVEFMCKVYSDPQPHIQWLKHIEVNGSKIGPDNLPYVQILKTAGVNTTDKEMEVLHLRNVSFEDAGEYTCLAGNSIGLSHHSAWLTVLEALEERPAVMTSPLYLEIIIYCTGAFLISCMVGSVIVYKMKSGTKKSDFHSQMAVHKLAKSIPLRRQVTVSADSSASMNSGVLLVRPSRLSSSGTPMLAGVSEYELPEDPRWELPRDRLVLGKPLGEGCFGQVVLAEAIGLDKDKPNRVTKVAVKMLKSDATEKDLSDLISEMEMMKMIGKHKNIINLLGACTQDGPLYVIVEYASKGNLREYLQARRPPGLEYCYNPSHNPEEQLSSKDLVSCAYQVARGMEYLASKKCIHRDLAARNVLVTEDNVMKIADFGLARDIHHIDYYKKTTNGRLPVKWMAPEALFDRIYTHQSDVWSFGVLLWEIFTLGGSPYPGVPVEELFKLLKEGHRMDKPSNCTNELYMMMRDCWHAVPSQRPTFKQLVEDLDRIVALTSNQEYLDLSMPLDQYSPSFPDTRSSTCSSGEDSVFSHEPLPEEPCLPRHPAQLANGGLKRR

| Structure (SMILES) | inhibition at 0.1 µM (mTOR (FRAP1)) [%] | GI50 (NCI-H23) [nM] | AUC(0-t) ([1]; IV 5 mg/kg) [ng·h/mL] | Cmax ([1]; IV 5 mg/kg) [ng/mL] | MRT ([1]; IV 5 mg/kg) [h] | clearance ([1]; IV 5 mg/kg) [mL/min/kg] | half-life ([1]; IV 5 mg/kg) [h] | GI50 (NCI 60 human cell lines) [nM] | GI50 (SKOV-3) [nM] | GI50 (A549) [nM] | inhibition at 1 µM (HER2) [%] | metabolic stability in HLM [2] | GI50 (HCT-116) [nM] | inhibition at 1 µM (FGFR1) [%] | inhibition at 1 µM (VEGF2) [%] | IC50 [3] [nM] | GI50 (PC-3) [nM] | inhibition at 1 µM (HER1 (EGFR)) [%] | GI50 (MCF-7) [nM] | inhibition at 0.1 µM (PI3Kα) [%] | also measured |
| --- | --- | --- | --- | --- | --- | --- | --- | --- | --- | --- | --- | --- | --- | --- | --- | --- | --- | --- | --- | --- | --- |
| CN1CCN(C(=O)c2ccc(NC(=O)Nc3ccc(-c4nc(N5CCOCC5)c5cccn5n4)cc3)cc2)CC1 [Example 46] | 86 | 96.2 | 8760 | 8460 | 3.66 | 8.28 | 3.25 | 59 | 26.8 | 66.5 | -6 | metabolically stable | 60.2 | -3 | 11 | < 500 | 23 | 0 | 14.4 |  | GI50 (NCI-H460): 59.7 nM |
| O=C(Nc1ccc(C(=O)N2CC(O)C2)cc1)Nc1ccc(-c2nc(N3CCOCC3)c3cccn3n2)cc1 [Example 54] | 95 |  |  |  |  |  |  |  |  |  | 4 |  |  | -4 | 7 | < 500 |  | -1 |  |  |  |
| O=C(Nc1ccc(-c2nc(N3CCOCC3)c3cccn3n2)cc1)Nc1cccnc1 [Example 14] | 87 | 269 | 10100 | 6560 | 1.7 | 10.3 | 1.3 | 120 | 98.7 | 244 | -8 | metabolically stable | 41 | 1 | 8 | < 500 | 51 | -1 | 48.3 | 11 | CL ([1]; PO 10 mg/kg): 30.13 mL/min/kg; AUC(0-t) ([1]; PO 10 mg/kg): 4900 ng·h/mL; Cmax ([1]; PO 10 mg/kg): 784 ng/mL; MRT ([1]; PO 10 mg/kg): 5.71 h; Tmax ([1]; PO 10 mg/kg): 1 h; half-life ([1]; PO 10 mg/kg): 3.28 h; bioavailability [1]: 22%; GI50 (NCI-H460): 142 nM |
| OCCNC(=S)Nc1ccc(-c2nc(N3C[C@H]4CC[C@@H](C3)O4)c3cccn3n2)cc1 [Example 122] | 94 | 70.3 | 11400 | 4700 | 3.03 | 7.35 | 2.13 | 62 | 18.9 | 110 | -1 | metabolically stable | 364 | 0 | -10 | < 500 | 41 | 1 | 26.8 | 8 | CL ([1]; PO 10 mg/kg): 13.3 mL/min/kg; AUC(0-t) ([1]; PO 10 mg/kg): 11900 ng·h/mL; Cmax ([1]; PO 10 mg/kg): 1910 ng/mL; MRT ([1]; PO 10 mg/kg): 7.33 h; Tmax ([1]; PO 10 mg/kg): 0.833 h; half-life ([1]; PO 10 mg/kg): 4.72 h; bioavailability [1]: 48%; GI50 (NCI-H460): 35.9 nM |
| O=C(NCCO)Nc1ccc(-c2nc(N3CCOCC3)c3cccn3n2)cc1 [Example 29] | 94 |  | 16600 | 11900 | 1.84 | 4.83 | 1.49 |  |  |  | -7 | metabolically stable |  | -1 | 11 | < 500 |  | -1 |  | 9 | CL ([1]; PO 10 mg/kg): 99 mL/min/kg; AUC(0-t) ([1]; PO 10 mg/kg): 1650 ng·h/mL; Cmax ([1]; PO 10 mg/kg): 380 ng/mL; MRT ([1]; PO 10 mg/kg): 2.9 h; Tmax ([1]; PO 10 mg/kg): 2 h; half-life ([1]; PO 10 mg/kg): 1.12 h; bioavailability [1]: 5% |
| CN1CCCN(C(=O)c2ccc(NC(=O)Nc3ccc(-c4nc(N5CCOCC5)c5cccn5n4)cc3)cc2)CC1 [Example 59] | 93 |  |  |  |  |  |  |  |  |  | -2 |  |  | 7 | 10 | < 500 |  | 2 |  |  |  |
| CN(C)CCNC(=O)c1ccc(NC(=O)Nc2ccc(-c3nc(N4CCOCC4)c4cccn4n3)cc2)cc1 [Example 45] | 98 |  |  |  |  |  |  |  |  |  | -9 |  |  | 4 | 10 | < 500 |  | -2 |  | 0 |  |
| O=C(Nc1ccc(C(=O)N2CCC(O)CC2)cc1)Nc1ccc(-c2nc(N3CCOCC3)c3cccn3n2)cc1 [Example 55] | 90 |  |  |  |  |  |  |  |  |  | 5 | metabolically stable |  | -1 | 11 | < 500 |  | 0 |  |  |  |
